Reference: patent US20240408226A1, “ANTIBODY DRUG CONJUGATE INTERMEDIATE CONTAINING SN38 AND ITS PREPARATION METHOD” (priority 2021, published 2024)

Experiments:
[1] = Stability in PB (0.2 M) buffer at 37° C., quantified by LC-MS; type: physicochemical; settings: for Remaining fraction T/T0: 37° C.
Procedure: The system was placed in a constant temperature system of 37° C. […] The system was placed in a constant temperature system of 37° C.; • 4) 40 μL of sample was respectively taken at 0 h, 2 h, 4 h, 6 h, 24 h, and 48 h, added with 120 μL of acetonitrile, and centrifuged. The supernatant was taken for quantitative determination by LC-MS. • 5) Results processing.
The concentration at T=0 h in LC-MS was used as the reference, and the data were calculated by T/T0*100%. The results are shown in Table 3 and Table 4, respectively.

[2] = tested on: triple-negative breast cancer; settings: clinical phase II; cited from earlier work
[3] = tested on: non-small cell lung cancer; settings: non-small cell lung cancer after failed chemotherapy, targeting therapy and PD-1 treatment; cited from earlier work
small cell lung cancer = small cell lung cancer in which multiple treatments had failed; cited from earlier work

Molecule	decomposed ([1]; alkaline conditions, at 24 h)	decomposed ([1]; neutral conditions, at 6 h)	decomposed ([1]; neutral conditions, at 24 h)	Remaining fraction T/T0 ([1]; pH = 6, 0 h, 60 μg/mL)	Remaining fraction T/T0 ([1]; pH = 6, 2 h, 60 μg/mL)	Remaining fraction T/T0 ([1]; pH = 6, 4 h, 60 μg/mL)	Remaining fraction T/T0 ([1]; pH = 6, 6 h, 60 μg/mL)	Remaining fraction T/T0 ([1]; pH = 6, 24 h, 60 μg/mL)	Remaining fraction T/T0 ([1]; pH = 6, 48 h, 60 μg/mL)	Remaining fraction T/T0 ([1]; pH = 7, 0 h)	Remaining fraction T/T0 ([1]; pH = 7, 2 h)	Remaining fraction T/T0 ([1]; pH = 7, 4 h)	Remaining fraction T/T0 ([1]; pH = 7, 6 h)	Remaining fraction T/T0 ([1]; pH = 7, 24 h)	Remaining fraction T/T0 ([1]; pH = 7, 48 h)	Remaining fraction T/T0 ([1]; pH = 8, 0 h)	Remaining fraction T/T0 ([1]; pH = 8, 2 h)	Remaining fraction T/T0 ([1]; pH = 8, 4 h)	Remaining fraction T/T0 ([1]; pH = 8, 6 h)	Remaining fraction T/T0 ([1]; pH = 8, 24 h)	further results
CCc1c2c(nc3ccc(O)cc13)-c1cc3c(c(=O)n1C2)COC(=O)[C@@]3(CC)OC(=O)OCc1ccc(NC(=O)[C@@H](CCCCN)NC(=O)COCC(=O)NCCOCCOCCOCCOCCOCCOCCOCCOCCn2cc(CNC(=O)C3CCC(CN4C(=O)C=CC4=O)CC3)nn2)cc1 (stereo partly drawn) [CL2A-SN38]	98%	43%	98%	1	0.7479	0.6471	0.413	0.03593	0.02024	1	0.7038	0.5851	0.5715	0.02261	0.01906	1	0.6287	0.4347	0.3844	0.02532	Remaining fraction T/T0 ([1]; pH = 8, 48 h): 0.01928; decomposed ([1]; pH of 6, after 48 h): 98.0%; decomposed ([1]; pH of 7, after 48 h): 98.1%; decomposed ([1]; pH of 8, after 48 h): 98.1%
CCc1c2c(nc3ccc(OC(=O)N(CCOCCOC(=O)N(C)CCN(C)C)CCN(C)C(=O)OCc4ccc(NC(=O)[C@H](CCCNC(N)=O)NC(=O)[C@@H](NC(=O)CCCCCN5C(=O)C=CC5=O)C(C)C)cc4)cc13)-c1cc3c(c(=O)n1C2)COC(=O)[C@]3(O)CC [Compound of formula (1), maleimidohexanoic acid-L-valyl-L-citrulline-p-aminobenzyl-(N-methylethyldiethoxy-N,N,N-trimethylethylenediami ne)-camptothecin]	97%	18%	75%	1	0.9886	0.9761	0.9208	0.8682	0.7886	1	0.8789	0.8018	0.8219	0.2567	0.1222	1	0.5641	0.2841	0.1234	0.009607	Remaining fraction T/T0 ([1]; pH = 8, 48 h): 0.01256; decomposed ([1]; pH of 6, after 48 h): 21.2%; decomposed ([1]; pH of 7, after 48 h): 87.8%; decomposed ([1]; pH of 8, after 48 h): 98.7%; Stability compared with CL2A-SN38 ([1]; weak acidic conditions): more stable than CL2A-SN38; Stability compared with CL2A-SN38 ([1]; weak acidic or neutral conditions): higher stability
Sacituzumab govitecan																					effective rate [2]: 30%; tumor shrinkage, share of patients [2]: 69.5%; control rate [3]: up to 43%; tumor shrinkage, share of patients (small cell lung cancer): 60%
